Measurements: BindingDB's records for doi:10.1016/j.bioorg.2015.12.005 (Birla Institute of Technology, 2016)

Molecular target: Reverse transcriptase protein (Human immunodeficiency virus 1, UniProt Q9WJQ1)
Test: In-vitro HIV-1 RT Screening
Method: The reaction mixture was set with template primer complex, RT enzyme and dNTPs in a lysis buffer with or without inhibitors. The reaction mixture was incubated at 37 °C for 1 h and then transferred to streptavidine-coated microtitre plate (MTP). The biotin-labeled dNTPs that were incorporated in the template due to activity of RT, bound to streptavidine. The unbound dNTPs were washed using wash buffer and anti-DIG-POD was added to the MTP. The DIG-labeled dNTPs incorporated in the template were bound to an anti-DIG-POD antibody. The unbound anti-DIG-POD was washed again with washing buffer and the peroxide substrate (ABST) was added to the MTP. A colored reaction product was produced during the cleavage of the substrate catalyzed by a peroxide enzyme.

`Cc1ccc(NC(=O)OC(CN2CCCc3ccccc32)c2ccc(Cl)cc2)cc1` (configuration not stated) [1-(4-chlorophenyl)-2-(3,4-dihydroquinolin-1(2H)-yl)ethyl p-tolylcarbamate (6d)] was tested. Which IC50 did it give?
The IC50 was 83.6 µM.

How did the IC50 turn out when `O=C(Nc1ccccc1F)OC(CN1CCCc2ccccc21)c1ccc(Cl)cc1` (configuration not stated) [1-(4-chlorophenyl)-2-(3,4-dihydroquinolin-1(2H)-yl)ethyl 2-fluorophenylcarbamate (6e)] was run?
Its IC50 is 90.3 µM.

With `Cc1cccc(NC(=O)OC(CN2CCCc3ccccc32)c2ccc(Cl)cc2)c1` (configuration not stated) [1-(4-chlorophenyl)-2-(3,4-dihydroquinolin-1(2H)-yl)ethyl m-tolylcarbamate (6c)] as the compound, how does the IC50 read?
Its IC50 is 68.3 µM.

`O=C(Nc1ccc([N+](=O)[O-])cc1)OC(CN1CCCc2ccccc21)c1ccc(Cl)cc1` (configuration not stated) [1-(4-chlorophenyl)-2-(3,4-dihydroquinolin-1(2H)-yl)ethyl 4-nitrophenylcarbamate (6j)] was tested. Which IC50 did it give?
The IC50 was 5.42 µM.

With `CCOC(=O)c1ccccc1NC(=O)OC(CN1CCCc2ccccc21)c1ccc(Cl)cc1` (configuration not stated) [Ethyl 2-((1-(4-chlorophenyl)-2-(3,4-dihydroquinolin-1(2H)-yl)ethoxy)carbonylamino) benzoate (6k)] as the compound, how does the IC50 read?
The IC50 was 39 µM.

For `O=C(Nc1ccc(Cl)cc1)OC(CN1CCCc2ccccc21)c1ccc(Cl)cc1` (configuration not stated) [1-(4-chlorophenyl)-2-(3,4-dihydroquinolin-1(2H)-yl)ethyl 4-chlorophenylcarbamate (6h)], which IC50 is on record?
The IC50 was 23.8 µM.

`O=C(Nc1ccc(F)cc1)OC(CN1CCCc2ccccc21)c1ccc(Cl)cc1` (configuration not stated) [1-(4-chlorophenyl)-2-(3,4-dihydroquinolin-1(2H)-yl)ethyl 4-fluorophenylcarbamate (6g)] was tested. Which IC50 did it give?
Its IC50 is 48.6 µM.

How did the IC50 turn out when `O=C(Nc1cccc(F)c1)OC(CN1CCCc2ccccc21)c1ccc(Cl)cc1` (configuration not stated) [1-(4-chlorophenyl)-2-(3,4-dihydroquinolin-1(2H)-yl)ethyl 3-fluorophenylcarbamate (6f)] was run?
Its IC50 is 72.1 µM.

Which IC50 does the source give for `Cc1ccccc1NC(=O)OC(CN1CCCc2ccccc21)c1ccc(Cl)cc1` (configuration not stated) [1-(4-chlorophenyl)-2-(3,4-dihydroquinolin-1(2H)-yl)ethyl o-tolylcarbamate (6b)] here?
Its IC50 is 8.12 µM.

For `O=C(Nc1cccc([N+](=O)[O-])c1)OC(CN1CCCc2ccccc21)c1ccc(Cl)cc1` (configuration not stated) [1-(4-chlorophenyl)-2-(3,4-dihydroquinolin-1(2H)-yl)ethyl 3-nitrophenylcarbamate (6i)], which IC50 is on record?
The IC50 was 14.9 µM.

For `CCOC(=O)c1ccc(NC(=O)OC(CN2CCCc3ccccc32)c2ccc(Cl)cc2)cc1` (configuration not stated) [Ethyl4-((1-(4-chlorophenyl)-2-(3,4-dihydroquinolin-1(2H)-yl)ethoxy)carbonylamino) benzoate (6l)], which IC50 is on record?
Its IC50 is 12.3 µM.

For `O=C(Nc1ccccc1)OC(CN1CCCc2ccccc21)c1ccc(Cl)cc1` (configuration not stated) [1-(4-chlorophenyl)-2-(3,4-dihydroquinolin-1(2H)-yl)ethyl phenylcarbamate (6a)], which IC50 is on record?
Its IC50 is 37 µM.
